Values of other authors, collected in patent US20240350409A1, “TRANSDERMAL DELIVERY FORMULATIONS AND METHODS FOR THE MANUFACTURE THEREOF” (LifeActive, Inc., priority 2023, published 2024).

Conditions: in H2O at ~15-20° C.; weak organic acids

Substance | pKa3 | pKa2
Citric Acid | 6.40 | 
Maleic Acid |  | 6.07
